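1) Cells in 96-well plates. 2) Compound, 48 h, 5 concentrations. 3) Linear interpolation between surrounding doses. 4) Unreached endpoint = highest concentration. Here, GI50 denotes the concentration required for 50% inhibition of growth. TGI marks complete inhibition of growth.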
Tests used:
Assay in all cases: DTP human tumour cell line panel, 48 h
UO-31 renal = system: UO-31 renal
LOX IMVI melanoma = system: LOX IMVI melanoma
DU-145 prostate = system: DU-145 prostate
UACC-62 melanoma = system: UACC-62 melanoma
SR leukemia = system: SR leukemia
NCI-H23 lung = system: NCI-H23 lung
MDA-MB-435 = system: MDA-MB-435
SK-MEL-2 melanoma = system: SK-MEL-2 melanoma
UACC-257 melanoma = system: UACC-257 melanoma
RXF 393 renal = system: RXF 393 renal
T-47D breast = system: T-47D breast
SF-539 CNS = system: SF-539 CNS
BT-549 breast = system: BT-549 breast
HL-60(TB) leukemia = system: HL-60(TB) leukemia
NCI-H522 lung = system: NCI-H522 lung
OVCAR-5 ovarian = system: OVCAR-5 ovarian
M14 melanoma = system: M14 melanoma
MDA-MB-231 breast = system: MDA-MB-231 breast
K-562 leukemia = system: K-562 leukemia
HCC-2998 colon = system: HCC-2998 colon
SNB-19 CNS = system: SNB-19 CNS
HOP-62 NSCLC = system: HOP-62 NSCLC
A549 NSCLC = system: A549 NSCLC
NCI-H226 lung = system: NCI-H226 lung
SF-268 CNS = system: SF-268 CNS
MALME-3M melanoma = system: MALME-3M melanoma
OVCAR-4 ovarian = system: OVCAR-4 ovarian
786-0 renal = system: 786-0 renal
IGROV1 ovarian = system: IGROV1 ovarian
ACHN renal = system: ACHN renal
MDA-MB-468 breast = system: MDA-MB-468 breast
OVCAR-8 ovarian = system: OVCAR-8 ovarian
OVCAR-3 ovarian = system: OVCAR-3 ovarian
SN12C renal = system: SN12C renal
HCT-15 colon = system: HCT-15 colon
SF-295 CNS = system: SF-295 CNS
MOLT-4 leukemia = system: MOLT-4 leukemia
SK-OV-3 ovarian = system: SK-OV-3 ovarian
HCT-116 colon = system: HCT-116 colon
A498 renal = system: A498 renal
TK-10 renal = system: TK-10 renal
PC-3 prostate = system: PC-3 prostate
NCI-H460 lung = system: NCI-H460 lung
SK-MEL-28 melanoma = system: SK-MEL-28 melanoma
CCRF-CEM leukemia = system: CCRF-CEM leukemia
COLO 205 colon = system: COLO 205 colon
SNB-75 CNS = system: SNB-75 CNS
MCF7 breast = system: MCF7 breast
SW-620 colon = system: SW-620 colon
HS 578T breast = system: HS 578T breast
KM12 colon = system: KM12 colon
HT29 colon = system: HT29 colon
HOP-92 NSCLC = system: HOP-92 NSCLC
SK-MEL-5 melanoma = system: SK-MEL-5 melanoma
CAKI-1 renal = system: CAKI-1 renal
EKVX NSCLC = system: EKVX NSCLC
U251 CNS = system: U251 CNS
RPMI-8226 leukemia = system: RPMI-8226 leukemia
NCI/ADR-RES ovarian = system: NCI/ADR-RES ovarian

## O=C(/C=C/c1ccccc1)c1nc2ccccc2n1Cc1ccc(F)cc1
UO-31 renal
  GI50: 1.77 µM
  TGI: 4.21 µM
LOX IMVI melanoma
  GI50: 1.62 µM
  TGI: 3.1 µM
DU-145 prostate
  GI50: 3.67 µM
  TGI: 14.2 µM
UACC-62 melanoma
  GI50: 2.42 µM
  TGI: 10.4 µM
SR leukemia
  GI50: 2.99 µM
  TGI: > 100 µM
NCI-H23 lung
  GI50: 2.66 µM
  TGI: 8.6 µM
MDA-MB-435
  GI50: 2.23 µM
  TGI: 5.92 µM
SK-MEL-2 melanoma
  GI50: 5.11 µM
  TGI: 17.1 µM
UACC-257 melanoma
  GI50: 4.1 µM
  TGI: 17 µM
RXF 393 renal
  GI50: 1.56 µM
  TGI: 3 µM
T-47D breast
  GI50: 2.71 µM
  TGI: 12.1 µM
SF-539 CNS
  GI50: 2.01 µM
  TGI: 4.18 µM
BT-549 breast
  GI50: 2.54 µM
  TGI: 7.59 µM
HL-60(TB) leukemia
  GI50: 2.44 µM
  TGI: 12.4 µM
NCI-H522 lung
  GI50: 2.42 µM
  TGI: 5.85 µM
OVCAR-5 ovarian
  GI50: 3.31 µM
  TGI: 11.6 µM
M14 melanoma
  GI50: 3.17 µM
  TGI: 11.4 µM
MDA-MB-231 breast
  GI50: 1.98 µM
  TGI: 4.17 µM
K-562 leukemia
  GI50: 3.1 µM
  TGI: > 100 µM
HCC-2998 colon
  GI50: 1.83 µM
  TGI: 3.91 µM
SNB-19 CNS
  GI50: 2.13 µM
  TGI: 5.76 µM
HOP-62 NSCLC
  GI50: 3.93 µM
  TGI: 12.6 µM
A549 NSCLC
  GI50: 4.82 µM
  TGI: 21.1 µM
NCI-H226 lung
  GI50: 13.8 µM
  TGI: 34.4 µM
SF-268 CNS
  GI50: 7.22 µM
  TGI: 30.2 µM
MALME-3M melanoma
  GI50: 3.52 µM
  TGI: 14.5 µM
OVCAR-4 ovarian
  GI50: 11.1 µM
  TGI: 28.6 µM
786-0 renal
  GI50: 1.82 µM
  TGI: 3.49 µM
IGROV1 ovarian
  GI50: 2.33 µM
  TGI: 5.89 µM
ACHN renal
  GI50: 3.66 µM
  TGI: 12.6 µM
MDA-MB-468 breast
  GI50: 1.92 µM
  TGI: 3.73 µM
OVCAR-8 ovarian
  GI50: 2.56 µM
  TGI: 6.88 µM
OVCAR-3 ovarian
  GI50: 2 µM
  TGI: 4.14 µM
SN12C renal
  GI50: 3.7 µM
  TGI: 13.8 µM
HCT-15 colon
  GI50: 1.75 µM
  TGI: 3.66 µM
SF-295 CNS
  GI50: 3.19 µM
  TGI: 10.8 µM
MOLT-4 leukemia
  GI50: 3.16 µM
  TGI: > 100 µM
SK-OV-3 ovarian
  GI50: 18.9 µM
  TGI: 45.5 µM
HCT-116 colon
  GI50: 1.92 µM
  TGI: 3.84 µM
A498 renal
  GI50: 18.5 µM
  TGI: 33.1 µM
TK-10 renal
  GI50: 2.9 µM
  TGI: 10.4 µM
PC-3 prostate
  GI50: 4.13 µM
  TGI: 26.7 µM
NCI-H460 lung
  GI50: 2.14 µM
  TGI: 5.38 µM
SK-MEL-28 melanoma
  GI50: 2.18 µM
  TGI: 5.25 µM
CCRF-CEM leukemia
  GI50: 4.43 µM
  TGI: > 100 µM
COLO 205 colon
  GI50: 3.18 µM
  TGI: 7.86 µM
SNB-75 CNS
  GI50: 1.72 µM
  TGI: 10.9 µM
MCF7 breast
  GI50: 1.77 µM
  TGI: 6.02 µM
SW-620 colon
  GI50: 2.15 µM
  TGI: 4.45 µM
HS 578T breast
  GI50: 4.76 µM
  TGI: 47.6 µM
KM12 colon
  GI50: 2.18 µM
  TGI: 5.01 µM
HT29 colon
  GI50: 3.26 µM
  TGI: 9.14 µM
HOP-92 NSCLC
  GI50: 4.03 µM
  TGI: 20.4 µM
SK-MEL-5 melanoma
  GI50: 3.49 µM
  TGI: 14.4 µM
CAKI-1 renal
  GI50: 2.97 µM
  TGI: 12.5 µM
EKVX NSCLC
  GI50: 4.86 µM
  TGI: 17 µM
U251 CNS
  GI50: 1.62 µM
  TGI: 3.19 µM

## O=C(c1ccc(Cl)cc1)c1ccc(OCCCN2CCN(c3ccncc3)CC2)cc1
UO-31 renal
  GI50: 2.36 µM
  TGI: 10.4 µM
LOX IMVI melanoma
  GI50: 1.69 µM
  TGI: 3.25 µM
DU-145 prostate
  GI50: 10.1 µM
  TGI: 23.6 µM
UACC-62 melanoma
  GI50: 1.8 µM
  TGI: 3.63 µM
SR leukemia
  GI50: 1.7 µM
  TGI: 5.65 µM
NCI-H23 lung
  GI50: 2.89 µM
  TGI: 11.7 µM
MDA-MB-435
  GI50: 3.09 µM
  TGI: 11.5 µM
UACC-257 melanoma
  GI50: 4.04 µM
  TGI: 15.7 µM
RXF 393 renal
  GI50: 0.831 µM
  TGI: 6.4 µM
T-47D breast
  GI50: 3.22 µM
  TGI: 18.3 µM
SF-539 CNS
  GI50: 1.77 µM
  TGI: 4.58 µM
BT-549 breast
  GI50: 2.86 µM
  TGI: 9.3 µM
HL-60(TB) leukemia
  GI50: 1.46 µM
  TGI: 3.59 µM
NCI-H522 lung
  GI50: 10.3 µM
  TGI: 23.4 µM
OVCAR-5 ovarian
  GI50: 10.5 µM
  TGI: 22.9 µM
M14 melanoma
  GI50: 1.77 µM
  TGI: 3.51 µM
MDA-MB-231 breast
  GI50: 4.32 µM
  TGI: 17.3 µM
K-562 leukemia
  GI50: 1.08 µM
  TGI: 4.8 µM
HCC-2998 colon
  GI50: 3.01 µM
  TGI: 8.47 µM
SNB-19 CNS
  GI50: 9.11 µM
  TGI: 21.8 µM
HOP-62 NSCLC
  GI50: 5.07 µM
  TGI: 18.3 µM
A549 NSCLC
  GI50: 9.41 µM
  TGI: 23.7 µM
NCI-H226 lung
  GI50: 4.22 µM
  TGI: 19.8 µM
RPMI-8226 leukemia
  GI50: 2.38 µM
  TGI: 10 µM
SF-268 CNS
  GI50: 11.6 µM
  TGI: 27.9 µM
MALME-3M melanoma
  GI50: 1.79 µM
  TGI: 3.41 µM
OVCAR-4 ovarian
  GI50: 5.07 µM
  TGI: 23.9 µM
786-0 renal
  GI50: 1.69 µM
  TGI: 3.27 µM
IGROV1 ovarian
  GI50: 6.59 µM
  TGI: 21 µM
ACHN renal
  GI50: 8.94 µM
  TGI: 21.1 µM
MDA-MB-468 breast
  GI50: 1.39 µM
  TGI: 4.38 µM
OVCAR-8 ovarian
  GI50: 9.52 µM
  TGI: 46.1 µM
OVCAR-3 ovarian
  GI50: 3.9 µM
  TGI: 17.3 µM
SN12C renal
  GI50: 10.9 µM
  TGI: 23.2 µM
HCT-15 colon
  GI50: 1.48 µM
  TGI: 4.46 µM
SF-295 CNS
  GI50: 2.04 µM
  TGI: 4.82 µM
MOLT-4 leukemia
  GI50: 2.88 µM
  TGI: 9.07 µM
SK-OV-3 ovarian
  GI50: 5.1 µM
  TGI: 18.4 µM
HCT-116 colon
  GI50: 2.17 µM
  TGI: 11.1 µM
A498 renal
  GI50: 16 µM
  TGI: 30.2 µM
TK-10 renal
  GI50: 12.3 µM
  TGI: 25.6 µM
PC-3 prostate
  GI50: 3.4 µM
  TGI: 21.4 µM
NCI-H460 lung
  GI50: 4.81 µM
  TGI: 18 µM
SK-MEL-28 melanoma
  GI50: 1.99 µM
  TGI: 3.82 µM
CCRF-CEM leukemia
  GI50: 2.7 µM
  TGI: 12.2 µM
COLO 205 colon
  GI50: 1.7 µM
  TGI: 3.51 µM
SNB-75 CNS
  GI50: 3.17 µM
  TGI: 18.6 µM
MCF7 breast
  GI50: 1.89 µM
  TGI: 5.16 µM
SW-620 colon
  GI50: 2.57 µM
HS 578T breast
  GI50: 6.05 µM
  TGI: 27.7 µM
KM12 colon
  GI50: 4.57 µM
  TGI: 17 µM
HT29 colon
  GI50: 1.81 µM
  TGI: 6.41 µM
HOP-92 NSCLC
  GI50: 1.54 µM
  TGI: 11.2 µM
SK-MEL-5 melanoma
  GI50: 1.73 µM
  TGI: 4.18 µM
CAKI-1 renal
  GI50: 4.95 µM
  TGI: 19.4 µM
EKVX NSCLC
  GI50: 3.62 µM
  TGI: 15.5 µM
U251 CNS
  GI50: 3.98 µM
  TGI: 15.2 µM

## Cc1ccc(/C=C/c2n(Cc3ccc4ccccc4c3)c3ccccc3[n+]2Cc2ccc3ccccc3c2)cc1
UO-31 renal
  GI50: 1.44 µM
  TGI: 2.77 µM
UACC-62 melanoma
  GI50: 1.27 µM
  TGI: 2.56 µM
RXF 393 renal
  GI50: 0.325 µM
  TGI: 1.39 µM
SF-539 CNS
  GI50: 0.475 µM
  TGI: 1.71 µM
OVCAR-5 ovarian
  GI50: 1.1 µM
  TGI: 2.3 µM
RPMI-8226 leukemia
  GI50: 0.331 µM
  TGI: 2.3 µM
SF-268 CNS
  GI50: 1.5 µM
  TGI: 3.88 µM
MALME-3M melanoma
  GI50: 0.465 µM
  TGI: 1.74 µM
ACHN renal
  GI50: 0.782 µM
  TGI: 2.03 µM
NCI/ADR-RES ovarian
  GI50: 1.9 µM
  TGI: 4.56 µM
SN12C renal
  GI50: 1.45 µM
  TGI: 2.79 µM
SF-295 CNS
  GI50: 0.399 µM
  TGI: 1.66 µM
SK-MEL-28 melanoma
  GI50: 0.726 µM
  TGI: 2.01 µM
SNB-75 CNS
  GI50: 0.729 µM
  TGI: 2.15 µM
HS 578T breast
  GI50: 0.382 µM
  TGI: 1.74 µM
SK-MEL-5 melanoma
  GI50: 0.905 µM
  TGI: 2.11 µM

Reference: PubChem BioAssay (NCI)
